Assay results: US20080039392A1, “CRAC channel and modulator screening methods” (THE REGENTS OF THE UNIVERSITY OF CALIFORNIA, priority 2006, published 2008)
Entries after “also recorded” stand apart in the source; their conditions may differ.

Key:
[1] = system: CRAC current in olf186-F+Stim transfected S2 cells; assay: Whole-cell recording of CRAC current in S2 cells co-transfected with olf186-F (WT Orai) + Stim; assay type: cell-based, Drosophila; conditions: for CRAC current density: at −130 mV, high-Ca2+ pipette solution, 10 μM IP3 in pipette or TG in bath
Method: Whole-cell recording. Patch-clamp experiments were performed at room temperature in the standard whole-cell recording configuration. The membrane capacitance (a measure of cell surface area) of S2 cells selected for recording was 9.15±0.27 pF (mean ±SEM, n=287 cells, 22 experiments). To calculate current densities, peak current amplitudes were divided by membrane capacitance for each cell.
(§1) Cells transfected (Amaxa) with Orai and Stim constructs were identified by fluorescence of co-transfected GFP. Patch clamp experiments were performed at room temperature in the standard whole-cell recording, using conditions similar to those reported previously^10. The membrane capacitance of S2 cells selected for recording was 11.6±0.4 pF (n=131 cells). Membrane potentials were corrected for a liquid junction potential of 10 mV between the pipette and bath solution. The series resistance (2-7 MΩ) was not compensated. The membrane potential was held at −10 mV, and 220-ms voltage ramps from −130 to 90 mV alternating with 220-ms pulses to −130 mV were delivered every 2 s. Only cells with high input (>2 GΩ) were selected for recording. External and pipette solution recipes are listed in supplementary table 1. Analyzed data are presented as mean ±SEM.
(§2) Data were analyzed by Pulse (Heka Electronics) and Origin (OriginLab Corp.). Five I-V curves were averaged for display. […] Since almost all S2 cells at the moment of break-in display an outward current that disappears during perfusion with internal solution (but before the inward CRAC current starts to develop), the following procedure for leak subtraction was employed. The first three ramp currents after the outward current subsided were averaged (Imid). Then, another set of three ramps after maximal inward CRAC current had developed were averaged (Imax). The difference between Imax and Imid represents an isolated CRAC current but with amplitude less than the actual one. To correct this the difference was scaled such that the value of current at −130 mV is equal to maximal inward current minus initial inward current. Then the scaled difference was subtracted from Imax followed by fitting with a polynomial function. This fit was considered as the basal leak current. […] In this case a linear I-V curve reversing at 0 mV with current magnitude at +90 mV equal to the sustained outward current was assigned as leak current. For E180D Orai-induced CRAC current, the initial current was considered as leak.

E180D Orai mutant + Stim = target: T1, E180D Orai mutant + Stim (Drosophila melanogaster, UniProt Q9U6B8, E178D); assay: Whole-cell recording of E180D Orai-induced CRAC current in S2 cells; assay type: cell-based; conditions: for effect of divalent cation on E180D Orai-induced current: 20 mM external divalent vs 2 mM Ca2+; for IC50: scaled to current in divalent-free solution
T1 construct: A cDNA clone, pAc5.1/olf186-F, encoding full-length Drosophila olf186-F-RB; expressed in transfected cells; host or cells: Drosophila S2 cells (Invitrogen)
From the text: (§3) Generation of pAc5.1/EGFP, pAc5.1/D-STIM, pAc5.1/D-STIM-V5-His and pAc5.1/olf186-F (GenBank accession number DQ503470) were as described^5. olf186-F pore mutants were made by exchanging the corresponding codons (E180A: GAG to GCG; E180D: GAG to GAC; D184A: GAT to GCT; D186A: GAT to GCT; N188A: AAT to GCT; FIG. 14) using the QuikChange site-directed mutagenesis kit (Stratagene). The pAc5.1/HA-olf186-F clone was made by adding the HA tag via PCR and re-cloned into the XhoI and NotI sites of pAc5.1/V5-His B expression vector. Resulting clones were confirmed by sequencing. Description of the primers and conditions for cloning is available upon request. Both HA-olf186-F and Stim-V5-His were verified for normal function by whole-cell recording.
as §1, §2

[2] = target: T2, D184A, D186A, N188A Orai mutants + Stim (Drosophila melanogaster, UniProt Q9U6B8, D182A); assay: Whole-cell recording of CRAC current of charge-neutralizing Orai mutants, block by Gd3+; assay type: cell-based; conditions: D184A Orai
T2 construct: A cDNA clone, pAc5.1/olf186-F, encoding full-length Drosophila olf186-F-RB; expressed in transfected cells; host or cells: Drosophila S2 cells (Invitrogen)
From the text: as §3, §1

[3] = target: T3, D184A, D186A, N188A Orai mutants + Stim (Drosophila melanogaster, UniProt Q9U6B8, N186A); assay: as above; assay type: cell-based; conditions: N188A Orai
T3 construct: A cDNA clone, pAc5.1/olf186-F, encoding full-length Drosophila olf186-F-RB; expressed in transfected cells; host or cells: Drosophila S2 cells (Invitrogen)
From the text: as §3, §1

[4] = target: T4, D184A, D186A, N188A Orai mutants + Stim (Drosophila melanogaster, UniProt Q9U6B8, D184A); assay: as above; assay type: cell-based; conditions: D186A Orai
T4 construct: A cDNA clone, pAc5.1/olf186-F, encoding full-length Drosophila olf186-F-RB; expressed in transfected cells; host or cells: Drosophila S2 cells (Invitrogen)
From the text: as §3, §1

Drosophila S2 cells = assay: Single-cell ratiometric fura-2 [Ca2+]i imaging; assay type: cell-based; conditions: ionomycin in zero-Ca2+ solution, control cells
Method: RNAi in Drosophila S2 cells. RNAi experiments were adapted from the protocols described by Worby et al. (2). Drosophila S2 cells (0.5×10^6) were seeded in T-25 flasks in 2 ml of complete S2 media. The next day, media was removed and replaced with 2 ml serum-free S2 media. 20 μg dsRNA was added and cells were incubated at room temperate for 45 min with gentle rocking. 4 ml S2 media was added and cells were incubated for 5 days at 24° C. Cells were then harvested and either plated for single cell Ca^2+ imaging and patch-clamp experiments or processed for RT-PCR analysis.
Single-cell [Ca2+]i imaging. Ratiometric [Ca2+]i imaging was performed as described, using solution recipes described in Table 3. Transfected cells were recognized by co-expressed enhanced green fluorescent protein (EGFP), using filters to avoid contamination of Fura-2 fluorescence by bleed-through of GFP fluorescence. Data were analysed with Metafluor software (Universal Imaging) and OriginPro 7.5 software (OriginLab) and are expressed as means ±SEM.

[5] = system: Stim-Orai protein interaction; assay: Co-immunoprecipitation of Stim and Orai; assay type: cell-based, Drosophila; conditions: Ca2+ store depletion, 1 μM TG 15 min
Method: Two days after transfection, 5×10^6 cells were treated with either Ringer or zero-Ca^2+ Ringer+1 μM TG using solutions described^6 for 15 min at room temperature. Cells transfected with Stim-V5-His only or HA-olf186-F only were used as controls. Cell extracts were then prepared using RIPA lysis buffer (Upstate) according to manufacturer instructions. The extracts were pre-cleared with protein A/G beads (Pierce) and protein concentration was determined, using the Pierce BCA Protein Reagent Kit. The cell lysate was then diluted to approximately 1 mg/ml total protein with PBS and mixed with either anti-HA monoclonal antibodies (1 μg/100 μg total protein, Santa Cruz) or anti-V5 monoclonal antibodies (1 μg/100 μg total protein, Invitrogen) for 4 hr at 4° C. Equal amount of samples were mixed with either normal mouse IgG or vehicle as negative controls. Protein A/G beads were subsequently added (1 μl/1 μg IgG) to rock overnight at 4° C. Proteins were eluted by boiling in 4× sample buffer (Invitrogen). Samples were resolved by SDS-PAGE and analyzed by standard western blotting techniques. Anti-HA monoclonal antibodies (Santa Cruz) were used at a dilution of 1:200. Anti-V5 monoclonal antibodies (Invitrogen) were used at a dilution of 1:2500. Proteins were detected by developing with the SuperSignal (Pierce) detection system.

T1 sequence (Q9U6B8 whole entry E178D): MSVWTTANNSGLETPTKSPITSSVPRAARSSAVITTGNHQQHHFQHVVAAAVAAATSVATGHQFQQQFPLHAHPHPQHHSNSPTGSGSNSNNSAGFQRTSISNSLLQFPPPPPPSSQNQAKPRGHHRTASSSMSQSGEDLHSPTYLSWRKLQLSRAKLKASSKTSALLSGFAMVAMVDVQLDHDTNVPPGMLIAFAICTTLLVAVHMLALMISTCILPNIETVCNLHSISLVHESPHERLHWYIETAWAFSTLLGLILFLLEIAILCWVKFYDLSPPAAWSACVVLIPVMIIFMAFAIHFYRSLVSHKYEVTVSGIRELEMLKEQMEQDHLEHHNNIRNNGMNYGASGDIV
T1 sequence (P83094 24-570, further chain): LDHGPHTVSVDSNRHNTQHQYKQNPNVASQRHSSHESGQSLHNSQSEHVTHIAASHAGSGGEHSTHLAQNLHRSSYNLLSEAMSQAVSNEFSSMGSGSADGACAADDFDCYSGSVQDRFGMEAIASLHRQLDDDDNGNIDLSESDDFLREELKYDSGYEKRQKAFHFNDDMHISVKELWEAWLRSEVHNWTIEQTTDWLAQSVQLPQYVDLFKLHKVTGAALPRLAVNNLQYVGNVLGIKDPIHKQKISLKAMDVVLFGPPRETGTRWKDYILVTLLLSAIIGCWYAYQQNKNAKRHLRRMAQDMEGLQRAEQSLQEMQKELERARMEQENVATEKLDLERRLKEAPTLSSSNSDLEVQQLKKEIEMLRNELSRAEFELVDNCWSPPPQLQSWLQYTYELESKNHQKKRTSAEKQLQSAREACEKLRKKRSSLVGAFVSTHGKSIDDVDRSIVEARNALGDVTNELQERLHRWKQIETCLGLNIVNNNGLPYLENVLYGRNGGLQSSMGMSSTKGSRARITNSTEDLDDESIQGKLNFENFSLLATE
T4 sequence (P83094 24-570): as the sequence (P83094 24-570, further chain) above
T4 sequence (Q9U6B8 whole entry D184A): as the sequence (Q9U6B8 whole entry E178D) above, with D178E, D184A counted along it
T3 sequence (P83094 24-570): as the sequence (P83094 24-570, further chain) above
T3 sequence (Q9U6B8 whole entry N186A): as the sequence (Q9U6B8 whole entry E178D) above, with D178E, N186A counted along it
T2 sequence (P83094 24-570): as the sequence (P83094 24-570, further chain) above
T2 sequence (Q9U6B8 whole entry D182A): as the sequence (Q9U6B8 whole entry E178D) above, with D178E, D182A counted along it

Q: `NCCOB(c1ccccc1)c1ccccc1` [2-APB, 2-aminoethyldiphenyl borate] was tested. Which “effect on Ca2+ (CRAC) current” value ([1]; 5 μM) did it give?
A: characteristic potentiation of current before blocking; also recorded: potentiated

Q: And the “effect on Ca2+ (CRAC) current” value ([1]; 20 μM)?
A: blocked; also recorded: inhibited

Q: And the “time course of E180D outward CRAC current” value (E180D Orai mutant + Stim; 5 μM)?
A: immediate decrease preceding potentiation

Q: What about the “time course of E180D outward CRAC current” value (E180D Orai mutant + Stim; 20 μM) of the same compound?
A: immediate increase preceding inhibition

Q: `[Ba+2]` [Ba^2+] was tested. Which “effect of divalent cation on E180D Orai-induced current” value (“effect of divalent cation” for short) (E180D Orai mutant + Stim) did it give?
A: significantly increased the inward current while decreasing the outward current

Q: What does the source list for `[Ca+2]` [Ca^2+]?
A: effect of divalent cation on E180D Orai-induced current (E180D Orai mutant + Stim): significantly decreased the outward current; IC50 (E180D Orai mutant + Stim; IC50, half-blocking Ca2+ concentration for inward current, at −130 mV): 0.048 ± 0.013 mM; IC50 (E180D Orai mutant + Stim; IC50, half-blocking Ca2+ concentration for outward current, at 90 mV): 2.05 ± 0.78 mM

Q: Which results are given for `[Gd+3]` [Gd^3+]?
A: suppression of native and WT Orai-induced CRAC current [1]: very effectively suppresses; effect on enhanced Ca2+ current ([1]; 50 nM): blocked; potency of Gd3+ block [2]: significantly reduced; potency of Gd3+ block [3]: to a lesser degree; potency of Gd3+ block [4]: significantly reduced

Q: For `O=P(O)(O)O[C@@H]1[C@H](O)[C@H](O)[C@@H](OP(=O)(O)O)[C@H](OP(=O)(O)O)[C@H]1O` [IP3, inositol 1,4,5-trisphosphate], which CRAC current density [1] is on record?
A: −11.4±3.1 pA/pF

Q: `[Mg+2]` [Mg^2+] was tested. Which “effect of divalent cation” value (E180D Orai mutant + Stim) did it give?
A: increased the current

Q: How did the “effect of divalent cation” value (E180D Orai mutant + Stim) turn out when `[Sr+2]` [Sr^2+] was run?
A: had little effect

Q: Which “peak of Ca2+ release transient” value (Drosophila S2 cells) does the source give for `C[C@H](CCC(=O)O)C[C@H](C)C[C@H](C)C(=O)/C=C(\O)[C@H](C)C[C@H](C)C/C=C/[C@@H](C)[C@@H](O)[C@@H](C)[C@@H](O)C[C@@H]1CC[C@@](C)([C@H]2CC[C@@](C)([C@@H](C)O)O2)O1` [ionomycin] here?
A: ~200 nM

Q: What does the source list for `C/C=C(/C)C(=O)O[C@H]1C(C)=C2[C@H]([C@@H]1OC(=O)CCCCCCC)[C@@](C)(OC(C)=O)C[C@H](OC(=O)CCC)[C@@]1(O)[C@H]2OC(=O)[C@@]1(C)O` [thapsigargin]?
A: CRAC current density [1]: −7.6±2.5 pA/pF; Stim-Orai protein interaction (co-immunoprecipitation) [5]: dramatically increased
